Where a name gives a salt, the structure may show the parent alone.
Tests used:
[1] = tested on: patients with COVID-19 pneumonia; experiment: Randomized, double-blind, placebo-controlled Phase 2a study of opaganib in COVID-19 pneumonia; assay type: in vivo, human
From the text: This was a phase 2a, proof of concept, multi-center randomized double-blind, parallel arm, placebo-controlled study. After informed consent was obtained, patients entered a screening phase for no more than 3 days, to determine eligibility. […] Treatment assignments remained blinded to the patient, investigator and hospital staff, as well as the sponsor. As there was no consensus for a definitive treatment specifically targeting the SARS-CoV-2 virus causing COVID-19 (Wilson, 2020), standard of care referred to regional, institutional or physician directed therapies, that were implemented during the COVID-19 pandemic.
Study drug was to be administered every day for 14 days (Day 1 to Day 14), unless the patient had been discharged from the hospital without requiring supplemental oxygen, in which case study drug would only be administered to Day 10.
All participants were followed up for 4 weeks after their last dose of study drug, which may have occurred at the end of the 2-week double-blind treatment phase or after premature study drug discontinuation, based upon patient or physician determination. The maximum duration of study participation was up to 45 days (including up to 3 days screening; 2 weeks DB treatment phase and 4-weeks off-study drug follow-up)
• 1. Adult male or female≥18 to ≤80 years of age • 2. Proven COVID-19 infection per RT-PCR assay of a pharyngeal sample (nasopharyngeal or oropharyngeal) AND pneumonia defined as radiographic opacities on chest X-ray • 3. The patient requires supplemental oxygen at baseline • 4. The patient, guardian or legal representative has signed a written IRB-approved informed consent Exclusion: • 1. Any co-morbidity that may add risk to the treatment in the judgement of the investigator. • 2. Requiring intubation and mechanical ventilation • 3. Oxygen saturation≥95% on room air • 4. Any preexisting respiratory condition that requires intermittent or continuous ambulatory oxygen prior to hospitalization • 5. Patient is, in the investigator's clinical judgement, unlikely to survive >72 hours • 6. Pregnant (positive serum test within 3 days prior to randomization) or nursing women • 7. Unwillingness or inability to comply with procedures required in this protocol. • 8. Corrected QT (QTc) interval on electrocardiogram (ECG) >470 ms for females or >450 ms for males, calculated using Friedericia's formula (QTcF) • 9. AST (SGOT) or ALT (SGPT) >2.5× upper limit of normal (ULN) • 10. Bilirubin>1.5×ULN (except where bilirubin increase is due to Gilbert's Syndrome) • 11. Serum creatinine>2.0×ULN • 12. Absolute neutrophil count<1000 cells/mm^3 • 13. Platelet count<75,000/mm^3 • 14. Hemoglobin<8.0 g/dL • 15. Currently taking medications that are sensitive CYP3A4, CYP2C9 or CYP2C19 substrates and have a narrow therapeutic index • 16. Currently taking medications that are strong inducers or inhibitors of CYP2D6 and CYP3A4 • 17. Currently taking warfarin, apixaban, argatroban or rivaroxaban • 18. Current drug or alcohol abuse • 19. Currently participating in a clinical study assessing pharmacological treatments, including anti-viral studies Number of Subjects: […]

[2] = tested on: human bronchial epithelial cells (HBEC)
[3] = tested on: patients with severe COVID-19 pneumonia; experiment: Randomized, double-blind, placebo-controlled Phase 2/3 study of opaganib in COVID-19 pneumonia (baseline FiO2 up to 60% subgroup)

In the case of O=C(NCc1ccncc1)C12CC3CC(C1)CC(c1ccc(Cl)cc1)(C3)C2 [opaganib, 3-(4-chlorophenyl)-adamantane-1-carboxylic acid (pyridin-4-ylmethyl) amide, hydrochloride salt], the “patients with serious adverse events (SAEs) vs. placebo arm” value ([1]; 500 mg Q12 hours up to 14 days) is reported as “fewer patients”, the safety ([1]; 500 mg Q12 hours up to 14 days plus standard of care, vs. placebo) is reported as “safe” and the “reduction from baseline of the medial total oxygen requirement (AUC) over 14 days” value ([1]; control arm 46.7%) is reported as 68.0%. For the same molecule, the “proportion of patients discharged by Day 14” value ([1]; control arm 55.6%) was 73.7%, the “proportion of patients reaching room air and no longer requiring oxygen support by Day 14” value ([1]; mITT sensitivity, control arm 22.2%) was 52.6% and the “proportion of patients with 50% reduction in supplemental oxygen by day 14” value ([1]; mITT sensitivity, control arm 66.7%) was 89.5%. For the same molecule, the “patients with adverse events such that study drug was terminated” value ([1]; opaganib arm, one patient in placebo arm) was “Two”, the cell viability [2] was “remained viable” and the “50% cytotoxicity reached in the concentration range tested” value ([2]; human) was “neither 50% inhibition nor 50% cytotoxicity were reached”. The “overall adverse events vs. placebo group” value ([3]; 500 mg Q12 hours, 14 days) was “balanced”, the “patients reaching room air by Day 14 (no supplemental oxygen for at least 24 hours)” value ([3]; baseline FiO2 up to 60%, 90/117 patients, placebo 85/134 (63.5%)) was 77% and the “efficacy benefit in mortality, Sensitivity Analysis” value ([3]; baseline FiO2 up to 60%, nominal p-value=0.033) was 64%. For the same molecule, the “mortality (deaths/patients), Sensitivity Analysis” value ([3]; baseline FiO2 up to 60%, placebo 16/134) was 5/117, the “efficacy benefit in reaching room air by Day 14” value ([3]; baseline FiO2 up to 60%, vs. placebo, nominal p-value=0.033) was 21% and the “median time to discharge” value ([3]; baseline FiO2≤60% (251 patients), placebo 14 days) was 10 days. For the same molecule, the “Time to a score of <=3 on the WHO Ordinal Scale: Kaplan-Meier Median” value ([3]; baseline FiO2≤60%, 95% CI (7.00-9.00), placebo 10.00) was 8.00 days, the “Patients With an Improvement of 2 or More on the WHO Ordinal Scale Compared to Baseline by Day 14” value ([3]; baseline FiO2≤60%, N = 117) was 93 (79.49) n (%) and the “Time to Discharge by day 42: Number of Events” value ([3]; baseline FiO2≤60%, N = 117) was 81 (69.2) n (%). The “Time to a score of <=3 on the WHO Ordinal Scale: Number of Events” value ([3]; baseline FiO2≤60%, N = 117) was 93 (79.5) n (%), the “Time to Discharge by day 42: Difference and 95% CI (opaganib vs. placebo)” value ([3]; baseline FiO2≤60%, p-value 0.0022) was −4.48 (−7.34, −1.62) days and the “Difference in Rates (Opaganib-Placebo), improvement of 2 or more on the WHO Ordinal Scale by Day 14” value ([3]; baseline FiO2≤60%, p-value 0.023) was 13.82%. For the same molecule, the “Time to Discharge by day 42: Kaplan-Meier Mean (Restricted Mean Analysis)” value ([3]; baseline FiO2≤60%, placebo 17.89) was 13.41 days, the “mortality (deaths/patients)” value ([3]; mITT with baseline FiO2 up to 60%, through Day 42, placebo 21/134) was 7/117 and the reduction in mortality ([3]; mITT with baseline FiO2 up to 60%, vs. placebo, nominal p-value=0.019) was 62%.

Source: patent publication US11471448B2 (priority 2020, dated 2022)
